Laboratory results as given in ChEMBL document CHEMBL6092161, “First fragment-based screening identifies new chemotypes inhibiting ERAP1-metalloprotease” (Eur J Med Chem, 2024).

Columns and labels:
[1] = test system: Insulin-regulated aminopeptidase (Homo sapiens); assay: Inhibition of recombinant human IRAP at 300 uM using L-AMC as substrate preincubated for 30 mins followed by substrate addition and measured after 1 hr by fluorescence based assay; conditions: time 90.0 min
[2] = target: Endoplasmic reticulum aminopeptidase 2 (Homo sapiens) (UniProt Q6P179); assay: Inhibition of recombinant human ERAP2 at 300 uM using R-AMC as substrate preincubated for 30 mins followed by substrate addition and measured after 1 hr by fluorescence based assay relative to control; conditions: time 90.0 min
[3] = target: T1, Endoplasmic reticulum aminopeptidase 1 (Homo sapiens, UniProt Q9NZ08); assay: Inhibition of human ERAP1 using L-SIINFEKL as substrate by LC-MS/MS method
[4] = target: T1, Endoplasmic reticulum aminopeptidase 1; assay: Inhibition of recombinant human ERAP1 using L-AMC as substrate preincubated for 30 mins followed by substrate addition and measured after 1 hr by fluorescence based assay
[5] = target: Endoplasmic reticulum aminopeptidase 2 (Homo sapiens) (UniProt Q6P179); assay: Inhibition of recombinant human ERAP2 at 90 uM using R-AMC as substrate preincubated for 30 mins followed by substrate addition and measured after 1 hr by fluorescence based assay relative to control; conditions: time 90.0 min
[6] = target: T1, Endoplasmic reticulum aminopeptidase 1; assay: Inhibition of recombinant human ERAP1 using L-AMC as substrate at 90 uM preincubated for 30 mins followed by substrate addition and measured after 1 hr by fluorescence based assay relative to control; conditions: time 90.0 min
[7] = target: T1, Endoplasmic reticulum aminopeptidase 1; assay: Inhibition of recombinant human ERAP1 using L-AMC as substrate at 4 uM preincubated for 30 mins followed by substrate addition and measured after 1 hr by fluorescence based assay relative to control; conditions: time 90.0 min

T1 sequence (Q9NZ08 whole entry): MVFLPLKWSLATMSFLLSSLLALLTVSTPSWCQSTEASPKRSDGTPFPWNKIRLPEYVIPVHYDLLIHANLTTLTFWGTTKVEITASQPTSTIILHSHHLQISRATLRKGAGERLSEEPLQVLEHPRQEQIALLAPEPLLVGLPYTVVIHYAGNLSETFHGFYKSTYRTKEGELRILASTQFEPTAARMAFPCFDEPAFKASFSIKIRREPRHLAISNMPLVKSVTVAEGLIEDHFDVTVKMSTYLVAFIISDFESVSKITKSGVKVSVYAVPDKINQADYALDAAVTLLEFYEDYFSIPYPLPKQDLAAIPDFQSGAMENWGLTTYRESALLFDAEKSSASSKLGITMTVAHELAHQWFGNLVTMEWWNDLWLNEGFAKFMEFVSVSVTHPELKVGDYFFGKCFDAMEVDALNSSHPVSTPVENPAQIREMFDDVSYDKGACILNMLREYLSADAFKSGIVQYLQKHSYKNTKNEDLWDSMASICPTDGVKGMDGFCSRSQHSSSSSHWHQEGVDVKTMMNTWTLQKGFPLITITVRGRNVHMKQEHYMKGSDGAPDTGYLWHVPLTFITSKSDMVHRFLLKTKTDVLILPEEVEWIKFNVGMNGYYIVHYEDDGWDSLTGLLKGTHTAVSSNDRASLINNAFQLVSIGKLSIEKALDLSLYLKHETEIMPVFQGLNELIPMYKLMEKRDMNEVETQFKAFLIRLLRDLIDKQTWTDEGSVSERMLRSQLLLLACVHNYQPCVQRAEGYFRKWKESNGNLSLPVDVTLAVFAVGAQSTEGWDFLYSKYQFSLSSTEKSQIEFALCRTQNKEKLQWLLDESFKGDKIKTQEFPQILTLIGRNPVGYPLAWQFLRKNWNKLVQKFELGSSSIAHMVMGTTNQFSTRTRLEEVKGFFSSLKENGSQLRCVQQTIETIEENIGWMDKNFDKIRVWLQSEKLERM
Endoplasmic reticulum aminopeptidase 2 (Homo sapiens), sequence (Q6P179 whole entry): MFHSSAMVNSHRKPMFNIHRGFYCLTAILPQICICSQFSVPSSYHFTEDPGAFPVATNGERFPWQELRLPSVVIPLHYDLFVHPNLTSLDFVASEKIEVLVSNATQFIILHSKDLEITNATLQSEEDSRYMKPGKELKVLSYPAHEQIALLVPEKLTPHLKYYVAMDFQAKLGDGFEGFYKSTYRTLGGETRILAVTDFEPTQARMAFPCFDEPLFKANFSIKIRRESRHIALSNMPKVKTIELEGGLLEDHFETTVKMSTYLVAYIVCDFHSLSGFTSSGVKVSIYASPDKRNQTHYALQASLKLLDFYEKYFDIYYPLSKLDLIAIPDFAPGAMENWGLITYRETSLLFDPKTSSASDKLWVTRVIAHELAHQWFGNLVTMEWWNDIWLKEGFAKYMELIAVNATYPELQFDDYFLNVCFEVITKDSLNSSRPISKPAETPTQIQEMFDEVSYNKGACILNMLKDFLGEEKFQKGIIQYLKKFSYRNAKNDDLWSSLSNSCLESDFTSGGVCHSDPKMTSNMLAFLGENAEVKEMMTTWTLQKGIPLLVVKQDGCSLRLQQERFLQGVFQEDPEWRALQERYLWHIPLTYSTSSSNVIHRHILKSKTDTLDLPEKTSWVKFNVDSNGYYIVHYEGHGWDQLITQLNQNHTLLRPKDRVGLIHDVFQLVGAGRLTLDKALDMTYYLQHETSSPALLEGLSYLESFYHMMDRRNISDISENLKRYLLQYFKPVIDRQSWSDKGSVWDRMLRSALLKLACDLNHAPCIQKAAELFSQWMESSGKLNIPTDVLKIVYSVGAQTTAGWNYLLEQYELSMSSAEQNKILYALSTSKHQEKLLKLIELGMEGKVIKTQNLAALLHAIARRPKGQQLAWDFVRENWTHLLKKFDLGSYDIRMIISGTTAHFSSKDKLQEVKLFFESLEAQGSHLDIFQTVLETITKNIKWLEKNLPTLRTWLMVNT

Compound	inhibition [1]	IC50 [4]	further results
CN1C(=O)/C(=C/c2ccc(C(=O)O)cc2)SC1=S	51%		inhibition [2]: 43%
O=C(O)c1ccc(CC2SC(=S)NC2=O)cc1 (centres undefined)	< 30%		inhibition [2]: < 30%
O=C1NC(=S)S/C1=C\c1ccc(C(=O)O)cc1		19.5 µM	IC50 [3]: 28.6 µM
O=C(O)Cc1cccc(S(=O)(=O)N2CCCC2)c1	< 30%		
COC(=O)c1ccc(CC2SC(=S)NC2=O)cc1 (centres undefined)	< 30%		
COc1ccc(Cc2c(O)nc(S)nc2O)cc1		58.3 µM	
O=C1NC(=O)/C(=C/c2ccc(C(=O)O)cc2)S1	38%		
O=C1NC(=O)C(Cc2ccc(C(=O)O)cc2)S1 (centres undefined)	30%		
O=C(O)Cc1ccc(S(=O)(=O)N2CCCCC2)s1	58%		inhibition [2]: 38%
O=C1NC(=O)/C(=C/c2ccc(C(=O)O)cc2)N1	30%		
O=C(O)Cc1ccc(S(=O)(=O)N2CCCC2)s1	62%	27.2 µM	
Nc1[nH]cnc2nc(S)nc1-2		2.2 µM	IC50 [3]: 10.3 µM
CN1C(=O)S/C(=C\c2ccc(C(=O)O)cc2)C1=O	47%		
COC(=O)c1ccc(/C=C2\SC(=S)NC2=O)cc1	< 30%		
O=c1[nH]c(=S)[nH]c(O)c1-c1ccccc1		82.6 µM	
CC(C)C[C@H](NC(=O)[C@@H](O)[C@H](N)Cc1ccccc1)C(=O)O			inhibition [5]: 50%; inhibition [6]: 100%; inhibition [7]: 100%
